How the values were obtained:
Type in all cases: physicochemical
[1] = Bulk density according to USP 24, method I; conditions: trihydrate
Source text: Preferably, the crystalline powder according to the invention has a bulk density higher than 0.46 g/ml, preferably higher than 0.5 g/ml, more preferably higher than 0.55 g/ml. This further improves the flow properties. Moreover, an increased bulk density is advantageous as crystalline powder may be fed into a certain volume, for instance a capsule. There is no specific upper limit for the bulk density. The bulk density may be less than 0.8 g/ml, for instance less than 0.7 g/ml. The bulk density is preferably determined according to USP 24, method I, (page 1913).
The bulk density was determined according to USP 24, method I, (page 1913).

[2] = Particle size distribution (d10, d50) by laser diffraction, Malvern particle sizer 2600 C; conditions: dry powder, f=300 mm, trihydrate
Source text: The d10 and d50 are known ways for indicating a particle size distribution, d50 referring to the value for the particle size such that 50 vol. % of the particles has a particle size smaller than said value. The d50 is also referred to as average volume-based grain size. Likewise, d10 refers to the value for the particle size such that 10 vol. % of the particles has a particle size smaller than said value. A preferred way for determining d10 and d50 is laser diffraction, preferably using Malvern equipment. A suitable apparatus for determining d10 and d50 is a Malvern particle sizer 2600 C obtainable from Malvern Instruments Ltd., Malvern UK, for instance using an objective of f=300 mm and a beam length of 14.30 mm. A polydisperse analysis model may advantageously be used.
The particle size distribution (including d10 and d50) of samples from the mixer was determined using a Malvern particle sizer 2600 C with objective f=300 mm, malvern sample measurement unit PS1 and a Malvern dry powder feeder PS 64. The beam length was 14.30 mm. A polydisperse analysis model was used.

[3] = Tapped density according to USP 24, method II; conditions: trihydrate; for Tap. dens. (dt): USP 24, method II; for db*(1/db − 1/dt)*100%: compressibility index from bulk and tapped density
[4] = Dissolution test of capsules, USP 27 amoxicillin capsules, apparatus 1; conditions: 500 mg (anhydrous basis) in gelatine capsule size 0, 900 ml water, 37° C., 100 rpm
Protocol: In one aspect of the invention, the crystalline powder according to the invention has a high dissolution rate. Preferably, the crystalline powder according to the invention has a T85% of less than 55 minutes, preferably less than 50 minutes, preferably less than 40 minutes, preferably less than 30 minutes, preferably less than 25 minutes, preferably less than 20 minutes. T85% may for instance be above 5 minutes. […] The determination of T85% is preferably carried out under conditions as defined in USP 27, chapter “amoxicillin capsules”, involving the use of apparatus 1 and applying a stirring rate of 100 rpm (USP 27, paragraph 711). Preferably, samples are taken at regular intervals, e.g. each 5 minutes, to determine the quantity of dissolved amoxicillin by UV absorption.
No auxiliaries were added. Dissolution tests were applied using apparatus 1 under the conditions as described in USP 27 under paragraph “amoxicillin capsules”, including a stirring rate of 100 rpm and a temperature of 37° C. Six beakers each containing 900 ml of water were used. Samples were taken each 5 minutes, and the quantity of dissolved amoxicillin were determined employing UV absorption at the wavelength of maximum absorbance at 272 nm. • 84 wt. % of the amoxicillin was dissolved in 15 minutes. • 90 wt. % of the amoxicillin was dissolved in 20 minutes.

Flow through Klein cup = conditions: Klein cup 8 mm; overheads fraction after air jet sieving 75 μm
Protocol: The powder of example V was subjected to air jet sieving (200 LS-N air jet sieve manufactured by Hosakawa Alpine). Sieving was carried out using a 75 μm screen during 10 minutes. A few agglomerates formed during said sieving were removed from the overheads fraction (not passed through the sieve) tusing a vibrating sieve (425 μm), after which tapped density, bulk density, d50, d10 of the resulting crystals of the overheads fraction was determined.

Row | Compound | Bulk dens. (db) [1] [g/mL] | d10 [2] [μm] | d50 [2] [μm] | Tap. dens. (dt) [3] [g/mL] | db*(1/db − 1/dt)*100% [3] [%] | amoxicillin dissolved ([4]; in 15 minutes) [wt. %] | amoxicillin dissolved ([4]; in 20 minutes) [wt. %] | flow through Klein cup (Flow through Klein cup)
1 | CC1(C)S[C@@H]2[C@H](NC(=O)[C@H](N)c3ccc(O)cc3)C(=O)N2[C@H]1C(=O)O.O.O.O [Comp. A, amoxicillin trihydrate, reference compound] | 0.26 | 4.0 | 17 | 0.55 | 53 | – | – | –
2 | CC1(C)S[C@@H]2[C@H](NC(=O)[C@H](N)c3ccc(O)cc3)C(=O)N2[C@H]1C(=O)O.O.O.O [Ex. I, amoxicillin trihydrate] | 0.51 | – | – | 0.73 | 30 | – | – | –
3 | CC1(C)S[C@@H]2[C@H](NC(=O)[C@H](N)c3ccc(O)cc3)C(=O)N2[C@H]1C(=O)O.O.O.O [Ex. II, amoxicillin trihydrate] | 0.56 | 8.8 | 42.8 | 0.78 | 28 | – | – | –
4 | CC1(C)S[C@@H]2[C@H](NC(=O)[C@H](N)c3ccc(O)cc3)C(=O)N2[C@H]1C(=O)O.O.O.O [Ex. III, amoxicillin trihydrate] | 0.56 | 9.9 | 47.8 | 0.81 | 31 | – | – | –
5 | CC1(C)S[C@@H]2[C@H](NC(=O)[C@H](N)c3ccc(O)cc3)C(=O)N2[C@H]1C(=O)O.O.O.O [Ex. IV, amoxicillin trihydrate] | 0.54 | 7.0 | 37.0 | 0.81 | 33 | 84 | 90 | –
6 | CC1(C)S[C@@H]2[C@H](NC(=O)[C@H](N)c3ccc(O)cc3)C(=O)N2[C@H]1C(=O)O.O.O.O [Ex. V, amoxicillin trihydrate] | 0.58 | 19 | 61 | 0.79 | 26 | – | – | –
7 | CC1(C)S[C@@H]2[C@H](NC(=O)[C@H](N)c3ccc(O)cc3)C(=O)N2[C@H]1C(=O)O.O.O.O [Ex. VI, amoxicillin trihydrate] | 0.59 | 36 | 86 | 0.74 | 20 | – | – | flows through Klein cup 8 mm
8 | CC1(C)S[C@@H]2[C@H](NC(=O)[C@H](N)c3ccc(O)cc3)C(=O)N2[C@H]1C(=O)O.O.O.O [Ref. B, amoxicillin trihydrate, reference compound] | 0.26 | – | – | 0.47 | 45 | – | – | –

Reference: US7534781B2 (DSM IP Assets B.V., priority 2003, dated 2009)
